Measured values from the supplement of paper PMC12137928.
Where a name gives a salt, the structure may show the parent alone.

Tested on: HCT116
Details: 72 h
Summary of the method: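 HCT116 cells were seeded at 250 per well in 1536-well plates and left 5 h to attach. CellTiter-Glo luminescence was scaled to vehicle (0%) and positive control (-100%), then pattern-corrected. IC50 and maximal efficacy came from four-parameter Hill fits.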

| Compound | IC50 cell viability (ICRF193 0 nM) | IC50 cell viability (ICRF193 200 nM) |
| --- | --- | --- |
| CN/C(=N\CCSCc1nc[nH]c1C)NC#N [Cimetidine] | > 45.8 µM | > 45.8 µM |
| COc1ccc(-c2c(Cl)ncn2-c2ccc(S(N)(=O)=O)cc2)cc1F [Cimicoxib] | > 45.8 µM | > 45.8 µM |
| COc1cc(/C=C/C(=O)N2CCN(CC(=O)N3CCCC3)CC2)cc(OC)c1OC [Cinepazide Maleate] | > 45.8 µM | > 45.8 µM |
| CC(C(O)c1ccccc1)N(C)C/C=C/c1ccccc1 (stereo not given) [Cinnamedrine] | > 45.8 µM | > 45.8 µM |
| OC/C=C/c1ccccc1 [Cinnamyl alcohol] | > 45.8 µM | > 45.8 µM |
| C(=C\c1ccccc1)/CN1CCN(C(c2ccccc2)c2ccccc2)CC1 [Cinnarizine] | > 45.8 µM | > 45.8 µM |
| CCn1nc(C(=O)O)c(=O)c2cc3c(cc21)OCO3 [Cinoxacin] | > 45.8 µM | > 45.8 µM |
| CCOCCOC(=O)/C=C/c1ccc(OC)cc1 [Cinoxate] | > 45.8 µM | > 45.8 µM |
| CC(C)(Oc1ccc(C2CC2(Cl)Cl)cc1)C(=O)O (stereo not given) [Ciprofibrate] | > 45.8 µM | > 45.8 µM |
| O=C(O)c1cn(C2CC2)c2cc(N3CCNCC3)c(F)cc2c1=O [Ciprofloxacin] | > 45.8 µM | > 45.8 µM |
| COc1cc(N)c(Cl)cc1C(=O)NC1CCN(CCCOc2ccc(F)cc2)CC1OC (stereo not given) [Cisapride] | > 45.8 µM | > 45.8 µM |
| CN(C)CCCC1(c2ccc(F)cc2)OCc2cc(C#N)ccc21 (stereo not given) [Citalopram hydrobromide] | > 45.8 µM | > 45.8 µM |
| CC[C@H]1OC(=O)[C@H](C)[C@@H](O[C@H]2C[C@@](C)(OC)[C@@H](O)[C@H](C)O2)[C@H](C)[C@@H](O[C@@H]2O[C@H](C)C[C@H](N(C)C)[C@H]2O)[C@](C)(OC)C[C@@H](C)C(=O)[C@H](C)[C@@H](O)[C@]1(C)O [Clarithromycin] | > 45.8 µM | > 45.8 µM |
| COc1cc(N)c(Cl)cc1C(=O)NC1CCN(Cc2ccccc2)CC1 [Clebopride maleate] | > 45.8 µM | > 45.8 µM |
| Clc1ccc(Cn2c(CN3CCCC3)nc3ccccc32)cc1 [Clemizole hydrochloride] | > 45.8 µM | > 45.8 µM |
| CC(C)(C)NCC(O)c1cc(Cl)c(N)c(Cl)c1 (stereo not given) [Clenbuterol] | > 45.8 µM | > 45.8 µM |
| CCCC(=O)OCOC(=O)C1=C(C)NC(C)=C(C(=O)OC)C1c1cccc(Cl)c1Cl (stereo not given) [Clevidipine] | > 45.8 µM | > 45.8 µM |
| C[N+]12CCC(CC1)C(OC(=O)C(O)(c1ccccc1)c1ccccc1)C2 (stereo not given) [Clidinium bromide] | > 45.8 µM | > 45.8 µM |
| CC(C)(C)C(=O)C(Oc1ccc(Cl)cc1)n1ccnc1 (stereo not given) [Climbazole] | > 45.8 µM | > 45.8 µM |
| CCC[C@@H]1C[C@@H](C(=O)N[C@@H]([C@H]2O[C@H](SC)[C@H](OP(=O)(O)O)[C@@H](O)[C@H]2O)[C@H](C)Cl)N(C)C1 [Clindamycin Phosphate] | > 45.8 µM | > 45.8 µM |
| CCC[C@@H]1C[C@@H](C(=O)N[C@@H]([C@H]2O[C@H](SC)[C@H](O)[C@@H](O)[C@H]2O)[C@H](C)Cl)N(C)C1 [Clindamycin hydrochloride] | > 45.8 µM | > 45.8 µM |
| CCCCCCCCCCCCCCCC(=O)O[C@@H]1[C@@H](O)[C@@H](O)[C@@H]([C@H](NC(=O)[C@@H]2C[C@@H](CCC)CN2C)[C@H](C)Cl)O[C@@H]1SC [Clindamycin palmitate HCl] | > 45.8 µM | > 45.8 µM |
| CCC(C)(Oc1ccc(C2(c3ccc(OC(C)(CC)C(=O)O)cc3)CCCCC2)cc1)C(=O)O (stereo not given) [Clinofibrate] | > 45.8 µM | > 45.8 µM |
| CC(Cc1ccccc1)NCc1ccccc1Cl (stereo not given) [Clobenzorex hydrochloride] | > 45.8 µM | > 45.8 µM |
| CCC(=O)O[C@]1(C(=O)CCl)[C@@H](C)C[C@H]2[C@@H]3CCC4=CC(=O)C=C[C@]4(C)[C@@]3(F)[C@@H](O)C[C@@]21C [Clobetasol propionate] | > 45.8 µM | > 45.8 µM |
| CC(CN(C)C)C(C)(O)Cc1ccc(Cl)cc1 (stereo not given) [Clobutinol hydrochloride] | > 45.8 µM | > 45.8 µM |
| C[C@@H]1C[C@H]2[C@@H]3C[C@H](F)C4=CC(=O)C=C[C@]4(C)[C@@]3(Cl)[C@@H](O)C[C@]2(C)[C@H]1C(=O)COC(=O)C(C)(C)C [Clocortolone pivalate] | > 45.8 µM | > 45.8 µM |
| O=P(O)(O)C(Cl)(Cl)P(=O)(O)O [Clodronate] | > 45.8 µM | > 45.8 µM |
| CC(C)/N=c1\cc2n(-c3ccc(Cl)cc3)c3ccccc3nc-2cc1Nc1ccc(Cl)cc1 [Clofazimine] | > 45.8 µM | > 45.8 µM |
| NS(=O)(=O)c1ccc(Cl)c(S(N)(=O)=O)c1 [Clofenamide] | > 45.8 µM | > 45.8 µM |
